Assay results: patent publication US11891634B2, “PDE5A destabilizing domains” (The Board of Trustees of the Leland Stanford Junior …, priority 2017, dated 2024)

What was measured:
AcGFP = assay: Comparison of N-terminal and C-terminal PDE5A derived DD (FACS); format: cell-based, human; conditions: 24 hours
Procedure: The ability of PDE5A derived DDs to destabilize a protein of interest may depend on the position whether the DD is appended to the N terminus or the C terminus of the protein of interest. Mutant #2, and mutant #41 were appended either to the N terminus or C terminus of AcGFP and analyzed using the cell-based screening assay described previously to identify destabilizing domains. Cells were split into two treatment groups and incubated with either Sildenafil (10 μM) or vehicle alone for 24 hours. Cells that were mock transduced or transduced with the N terminal fused wild-type PDE5A or PDE5AN (#40) constructs were also included in the analysis. The results are presented in Table 8 where the C terminal PDE5A mutants are denoted as PDE5AC and N terminal PDE5A mutants are denoted as PDE5AN.
The stabilization ratio was calculated as the fold change in GFP intensity of the AcGFP-PDE5A construct in Sildenafil treated sample compared to vehicle alone treated sample.

[1] = tested on: NIH3T3 cells expressing AcGFP-PDE5A variants; assay: Sildenafil dose dependency (FACS, percentage of max MFI); format: cell-based, mouse; conditions: Sildenafil 0.003 μM to 30 μM, read-out: half maximal effective concentration or EC50
Procedure: NIH3T3 cells expressing AcGFP-PDE5A variants were incubated with varying concentrations of Sildenafil ranging from 0.003 μM to 30 μM. The stability of PDE5A mutants was measured using FACS and mean fluorescence intensity (MFI) of GFP was calculated. […] Percentage of max MFI (%) was calculated as the ratio of the MFI at a ligand concentration compared to the maximum MFI. Percentage of max MFI was plotted against the concentration of Sildenafil presented in a log scale. Titration curves of PDE5AC (#2) and PDE5AC (#41) are presented in FIG. 4A and FIG. 4B, respectively. […] The half maximal effective concentration or EC50 was approximately 0.5 μM for PDE5AC (#2) and 2 μM for PDE5AC (#41).

[2] = tested on: NIH3T3 cells expressing AcGFP-PDE5A fusions; assay: Immunoblot analysis of AcGFP-PDE5A fusions (anti-XFP / anti-HA); format: cell-based, mouse; conditions: 10 μM Sildenafil or vehicle alone, 24 hours
Procedure: Identified PDE5A mutants were further validated using immunoblot analysis. NIH3T3 cells expressing AcGFP-PDE5A fusions were incubated with 10 μM Sildenafil or vehicle alone for 24 hours and the stability of PDE5A mutants was evaluated at the protein level. Cell lysates obtained from transduced NIH3T3 cells were immunoblotted using the anti-XFP antibody (1:3000) at 4° C. overnight. Samples were also immunoblotted with anti-GAPDH antibody (1:10000) to ensure uniform protein loading. Samples were then incubated with secondary anti-mouse antibody (1:3000) at room temperature for 1 hour, followed by visualization using appropriate methods. […] The difference in band intensity recapitulates the pattern from the FACS analysis.
A hemagglutinin (HA) sequence (SEQ ID NO. 74; encoded by SEQ ID NO. 75) was cloned in-frame at either the 5′- or 3′-ends of the PDE5A mutant sequence from PDE5AC (#41). The construct further included AcGFP (amino acids 1-239 of WT) at the N terminus (SEQ ID NO. 76, encoded by SEQ ID NO. 77) and an EF linker/EcoRI restriction site (GAATTC). […] The effect of the HA sequence on ligand dependent stabilization was evaluated via immunoblot analysis. […] As show in FIG. 3, HA-tagged fusion protein expression detected with either anti-XFP antibody or anti-HA antibody was nearly identical. […]

[3] = tested on: NIH3T3 cells expressing AcGFP-PDE5A fusions; assay: FACS analysis of C-terminal PDE5A mutants (AcGFP-PDE5A fusions), Sildenafil vs vehicle; format: cell-based, mouse; conditions: for Mean Fluorescence intensity: NIH3T3; for Stabilization ratio: Table 4, Sildenafil 10 μM vs vehicle alone
Procedure: The NIH3T3 cell line was cultured in DMEM supplemented with 10% heat-inactivated donor bovine serum (Invitrogen), 2 mM glutamine, 100 U/ml penicillin and 100 μg/ml streptomycin.
The ΦNX ecotropic packaging cell line was transfected using standard Lipofectamine 2000 protocols. Viral supernatants were harvested 48 hours, post transfection, filtered and concentrated 10-fold using Amicon Ultra centrifugal filter device with a 100kDa cutoff. NIH 3T3 cells were incubated with concentrated retroviral supernatants supplemented with 4 μg/ml polybrene for 4 hours at 37° C. Cells were washed once with PBS and cultured in growth media for 24-36 hours to allow for viral integration.
The transduced NIH3T3 cells were subjected to analysis using fluorescence-activated cell sorting (FACS) to screen the libraries of PDE5A mutants. 24 hours prior to analysis, transduced NIH3T3 cells were plated at 1×10^5 cells per well of a 12-well plate. Cells were removed from the plate using PBS and 2 mM EDTA, washed once with PBS, and resuspended in 200 μL, PBS. FACS analysis was performed on instruments at the Stanford Shared FACS Facility with 10,000 events represented.
To identify destabilizing domains that are responsive to the PDE5A ligand, Sildenafil, a cell-based screening assay was employed in which the fluorescence of green fluorescent protein derived from Aequorea coerulescens (AcGFP) served as an indicator of PDE5A stability. A library based on the PDE5A catalytic domain sequences was generated using error prone PCR and then cloned in-frame in front of AcGFP. A Moloney murine leukemia retroviral expression was used to stably integrate this library of PDE5A-AcGFP fusions into NIH-3T3 fibroblasts, and the transduced cells were subjected to three rounds of sorting using flow cytometry. In the first round, cells were treated with 10 μM of PDE5A ligand, Sildenafil for 16-24 before analysis. Fluorescent cells were collected and further cultured in the absence of ligand for 60 hours.
A library of AcGFP-PDE5A fusions i.e., C-terminal PDE5A mutants was screened using the cell-based screening assay described previously to identify C-terminal destabilizing domains. […] Identified candidates were subjected to further characterization by FACS. Cells were split into two treatment groups and incubated with either Sildenafil (10 μM) or vehicle alone for 24 hours. Cells that were mock transduced or transduced with the wild-type PDE5A construct were also included in the analysis. The stabilization ratio was calculated as the fold change in GFP intensity of the AcGFP-PDE5A construct in Sildenafil treated sample compared to vehicle alone treated sample. The results are presented in Table 2 where the C terminal PDE5A mutants are denoted as PDE5AC.
Residue D764 was identified as a mutational hotspot from sequence analysis. PDE5AC (#41) was engineered with either D764N or D764G mutation via site-directed mutagenesis. PDE5AC (#41) +D764N comprises the amino acid sequence of SEQ ID NO. 53 (encoded by SEQ ID NO. 54) and PDE5AC (#41) +D764G comprises the amino acid sequence of SEQ ID NO. 55 (encoded by SEQ ID NO. 56). AcGFP-PDE5A variants were evaluated for Sildenafil dependent stabilization via FACS as described previously. Results from FACS analysis are presented in Table 4 where the C terminal PDE5A mutants are denoted as PDE5AC. The stabilization ratio was calculated as the fold change in GFP intensity of the AcGFP-PDE5A construct in Sildenafil treated sample compared to vehicle alone treated sample.
Extended versions of human PDE5A that included residues in addition to catalytic domain (residues 535-860 of SEQ ID NO. 1) with Q589R polymorphism (SEQ ID NO. 11) were evaluated for use as C-terminal destabilizing domains. Three extended PDE5A sequences were tested that consisted of residues 535-875 of SEQ ID NO. 1 with Q589R polymorphism (SEQ ID NO. 13); residues 466-875 of SEQ ID NO. 1 with Q589R polymorphism (SEQ ID NO. 15); or residues 420-875 of SEQ ID NO. […]

[4] = Table 2, Sildenafil (10 μM) +, 24 hours
[5] = Table 2, Sildenafil (10 μM) −, vehicle alone, 24 hours
[6] = Table 4 (D764 mutations), Sildenafil (10 μM) +
[7] = Table 4 (D764 mutations), Sildenafil (10 μM) −

Substance | Mean FITC-A DMSO (AcGFP) | Mean FITC-A Sildenafil (10 μM) (AcGFP) | EC50 [1] [nM] | Fusion protein expression / ligand dependent stabilization by immunoblot [2] | Mean Fluorescence intensity [3, 4] | Mean Fluorescence intensity [3, 5] | Mean Fluorescence intensity [3, 6] | Mean Fluorescence intensity [3, 7] | Stabilization ratio [3]
PDE5AC (#41): AcGFP fused to C-terminal DD 535-860 of PDE5A (F561L, Q589R, K604E, D724N, L797F), SEQ ID NO. 27 | 1443 | 4620 | ~2000 | most drastic difference in the intensity of the bands | 6115 | 1000 | 4647 | 734 | 6.3
PDE5AC (#2): AcGFP fused to C-terminal DD 535-860 of PDE5A (Q589R, D687A, D764N, S815C), SEQ ID NO. 23 | 1342 | 5030 | ~500 | most drastic difference in the intensity of the bands | 6577 | 1023 | 3483 | 671 | 5.2
